Experimental findings from paper PMC12670405, “Second-Generation AURKA-Targeting PROTACs: Structural Optimization toward in Vivo Degradation in Neuroblastoma” (Journal of Medicinal Chemistry, 2025) are described below.

Experiment [1] addresses T1, AURKA (Homo sapiens, UniProt O14965).
T1 sequence (O14965 1-403): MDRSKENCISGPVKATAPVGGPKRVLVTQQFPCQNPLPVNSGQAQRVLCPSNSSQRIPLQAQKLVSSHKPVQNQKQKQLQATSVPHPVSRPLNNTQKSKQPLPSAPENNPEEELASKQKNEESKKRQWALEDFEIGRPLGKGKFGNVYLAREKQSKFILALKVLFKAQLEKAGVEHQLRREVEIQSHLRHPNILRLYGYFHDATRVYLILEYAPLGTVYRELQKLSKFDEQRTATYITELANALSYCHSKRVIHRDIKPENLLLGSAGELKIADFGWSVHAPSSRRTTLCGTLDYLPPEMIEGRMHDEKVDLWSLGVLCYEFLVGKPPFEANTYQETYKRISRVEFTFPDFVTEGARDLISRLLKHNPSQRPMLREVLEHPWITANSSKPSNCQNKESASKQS
The experiment is described as follows: AURKA protein levels, Western blot in SH-SY5Y with ABCB1 knockdown. Also noted: endogenous in cells. The conditions noted are these: 1 μM, 24h. Type of experiment: cell-based. (In general: A western blot detects proteins with antibodies after separation by electrophoresis.)

The next experiment deals with IMR-32 proteome. Briefly: LC-MS/MS proteome profiling. Type of experiment: cell-based, Homo sapiens. As for the experimental part: (§1) IMR-32 cells were seeded in T-25 flasks at a density of 1.7 million cells/flask and treated the next day with DMSO (negative control), SK5527 (500 nM) or MK-5108 (500 nM) for 3 or 24 h (data for MK-5108 not discussed in this manuscript). Cell pellets were harvested at the respective time points, lysed, and the concentration of the obtained protein lysates measured as previously described. Details on further sample preparation, LC–MS/MS, and data analysis can be found in the Supporting Information. The LC–MS/MS proteomics data have been deposited to the ProteomeXchange Consortium via the PRIDE partner repository with the data set identifier PXD061539.
(§2) Supplementary Methods 1 – LC-MS/MS proteomics
From each sample, 100 µg of protein was isolated, the volumes were equalized with water and SDS and TEAB were added to a final concentration of 5% and 50 mM, respectively. Proteins were reduced and alkylated by addition of 10 mM Tris(2-carboxyethyl)phosphine hydrochloride and 40 mM chloroacetamide and incubation for 30 minutes at 25°C in the dark. Phosphoric acid was added to a final concentration of 1.2%, and samples were subsequently diluted 7-fold with binding buffer containing 90% methanol in 100 mM TEAB, pH 7.55. The samples were loaded on the 96-well S-Trap™ plate (Protifi), placed on top of a deepwell plate, and centrifuged for 2 min at 1,500 x g at RT. […]

The target of the next experiment is T2, ZAK (Homo sapiens, UniProt Q9NYL2).
T2 construct: purchased Eurofins Discovery (DiscoverX KINOMEscan scanMAX)
T2 sequence (Q9NYL2 whole entry): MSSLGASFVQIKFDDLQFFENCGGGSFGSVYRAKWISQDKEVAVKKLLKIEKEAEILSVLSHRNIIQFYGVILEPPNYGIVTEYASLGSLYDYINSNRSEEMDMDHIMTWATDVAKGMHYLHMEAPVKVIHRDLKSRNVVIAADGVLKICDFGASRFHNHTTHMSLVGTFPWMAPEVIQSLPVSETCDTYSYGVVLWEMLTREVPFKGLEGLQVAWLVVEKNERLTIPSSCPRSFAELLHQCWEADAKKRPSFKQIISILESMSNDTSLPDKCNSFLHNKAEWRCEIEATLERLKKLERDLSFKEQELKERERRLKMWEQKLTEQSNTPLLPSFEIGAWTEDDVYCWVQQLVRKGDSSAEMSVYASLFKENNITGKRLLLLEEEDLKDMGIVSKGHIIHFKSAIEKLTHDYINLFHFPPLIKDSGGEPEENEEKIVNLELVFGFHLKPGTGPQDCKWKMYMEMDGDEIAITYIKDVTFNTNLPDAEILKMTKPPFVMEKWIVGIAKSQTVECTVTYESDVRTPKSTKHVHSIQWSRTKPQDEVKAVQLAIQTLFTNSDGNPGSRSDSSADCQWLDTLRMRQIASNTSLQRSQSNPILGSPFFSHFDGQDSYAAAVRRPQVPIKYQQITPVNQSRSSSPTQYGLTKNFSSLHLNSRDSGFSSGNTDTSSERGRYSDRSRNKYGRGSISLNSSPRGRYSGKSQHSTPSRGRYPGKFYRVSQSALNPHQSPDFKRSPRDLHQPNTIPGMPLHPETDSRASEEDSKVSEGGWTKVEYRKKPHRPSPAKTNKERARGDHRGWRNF
Briefly: KINOMEscan scanMAX. Type of experiment: binding. The conditions noted are these: read-out: Percent Control. As to the method: (§3) The kinome-wide binding assay was performed by Eurofins Discovery using the scanMAX screening platform. More information can be found on the Eurofins Discovery Web site.

The next experiment concerns the target T3, TYRO3 (Homo sapiens, UniProt Q06418).
T3 construct: purchased Eurofins Discovery (DiscoverX KINOMEscan scanMAX)
Briefly: KINOMEscan scanMAX. It counts as binding. To be noted: read-out: Percent Control. As for the experimental part: as §3

The target of another experiment is T4, PCTK1 (Homo sapiens, UniProt Q00536).
T4 construct: purchased Eurofins Discovery (DiscoverX KINOMEscan scanMAX)
T4 sequence (Q00536 whole entry): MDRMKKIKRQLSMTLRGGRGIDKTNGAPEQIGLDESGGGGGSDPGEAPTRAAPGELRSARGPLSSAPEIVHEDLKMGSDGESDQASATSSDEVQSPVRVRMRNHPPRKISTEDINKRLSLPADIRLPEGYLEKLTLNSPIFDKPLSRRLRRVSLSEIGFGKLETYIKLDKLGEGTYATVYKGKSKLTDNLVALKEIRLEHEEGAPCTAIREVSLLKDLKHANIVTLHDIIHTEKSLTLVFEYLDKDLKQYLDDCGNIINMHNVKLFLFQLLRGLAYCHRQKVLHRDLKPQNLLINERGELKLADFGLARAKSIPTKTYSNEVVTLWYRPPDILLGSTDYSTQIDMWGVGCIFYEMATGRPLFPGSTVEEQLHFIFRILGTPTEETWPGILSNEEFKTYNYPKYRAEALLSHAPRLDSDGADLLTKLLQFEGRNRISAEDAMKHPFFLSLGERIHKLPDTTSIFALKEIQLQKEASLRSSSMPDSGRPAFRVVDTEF
The experiment is described as follows: KINOMEscan scanMAX. It counts as binding. To be noted: read-out: Percent Control. As for the experimental part: as §3

A further experiment has as its target T5, LIMK1 (Homo sapiens, UniProt P53667).
T5 construct: purchased Eurofins Discovery (DiscoverX KINOMEscan scanMAX)
Briefly: KINOMEscan scanMAX. To be noted: read-out: Percent Control. Type of experiment: binding. As for the experimental part: as §3

Another experiment deals with JRKL. The experiment is described as follows: LC-MS/MS proteome profiling. Type of experiment: cell-based, Homo sapiens. Also noted: key to Significant (3h SK5527vs3h DMSO) FDR0 05 / Significant (24h SK5527vs24h DMSO) FDR0 05: +: Statistical significance for differential regulation was set to a false discovery rate (FDR) of < 0.05 and |log2FC| = 2. As to the method: as §1, §2
From each sample, 100 µg of protein was isolated, the volumes were equalized with water and SDS and TEAB were added to a final concentration of 5% and 50 mM, respectively. Proteins were reduced and alkylated by addition of 10 mM Tris(2-carboxyethyl)phosphine hydrochloride and 40 mM chloroacetamide and incubation for 30 minutes at 25°C in the dark. Phosphoric acid was added to a final concentration of 1.2%, and samples were subsequently diluted 7-fold with binding buffer containing 90% methanol in 100 mM TEAB, pH 7.55. The samples were loaded on the 96-well S-Trap™ plate (Protifi), placed on top of a deepwell plate, and centrifuged for 2 min at 1,500 x g at RT. After protein binding, the S-trap™ plate was washed three times by adding 200 µl binding buffer and centrifugation for 2 min at 1,500 x g at RT. A new deepwell receiver plate was placed below the 96-well S-Trap™ plate and 50 mM TEAB containing trypsin (1/100, w/w) was added for digestion overnight at 37°C.
Using centrifugation for 2 min at 1,500 x g, peptides were eluted in three steps, first with 80 µl 50 mM TEAB, then with 80 µl 0.2% formic acid (FA) in water and finally with 80 µl 0.2% FA in water/acetonitrile (ACN) (50/50, v/v). Eluted peptides were dried completely by vacuum centrifugation.
Peptides were re-dissolved in 20 µl loading solvent A (0.1% trifluoroacetic acid in water/acetonitrile (ACN) (99.5:0.5, v/v)) of which 2 µl of sample was injected for LC-MS/MS analysis on an Ultimate 3000 ProFlow nanoLC system in-line connected to a Orbitrap Exploris 240 mass spectrometer (Thermo) equipped with pneu-Nimbus dual ion source (Phoenix S&T). Trapping was performed at 20 μl/min for 2 min in loading solvent A on a PepMap™ Neo Trap column (Thermo scientific, 300 μm internal diameter (I.D.), 5 μm beads). The peptides were separated on a 250 mm Odyssey Ultimate, 1.7µm C18, 75 µm inner diameter (Ionopticks) kept at a constant temperature of 45°C. Peptides were eluted by a gradient reaching 26,4 % MS solvent B (0.1% FA in acetonitrile) after 80 min, 44% MS solvent B at 95 min, 56% MS solvent B at 100min followed by a 5-minutes wash at 56% MS solvent B and re-equilibration with MS solvent A (0.1% FA in water). The flow rate was set to 250 nl/min. The mass spectrometer was operated in data-independent mode, automatically switching between MS and MS/MS acquisition. Full-scan MS spectra ranging from 375-1500 m/z with a normalized target value of 300%, a maximum fill time of 25 ms and a resolution at of 60,000 were followed by 30 quadrupole isolations with a precursor isolation width of 10 m/z for HCD fragmentation at an NCE of 30% after filling the trap at a normalized target value of 2000% for maximum injection time of 45 ms. MS2 spectra were acquired at a resolution of 15,000 with a scan range of 200-1800 m/z in the Orbitrap analyser without multiplexing. The isolation intervals were set from 400 – 900 m/z with a width of 10 m/z using window placement optimization. The polydimethylcyclosiloxane background ion at 445.120028 Da was used for internal calibration (lock mass) and QCloud has been used to control instrument longitudinal performance during the project.
Analysis of the mass spectrometry data was performed in DiaNN (version 1.9). Precursor false discovery rate was […]
set at 1%. […]

The target of experiment [2] is T1, AURKA. Briefly: KINOMEscan scanMAX. Type of experiment: binding. Also noted: purchased Eurofins Discovery. To be noted: read-out: Percent Control. As to the method: as §3

T3 sequence (Q06418 41-890): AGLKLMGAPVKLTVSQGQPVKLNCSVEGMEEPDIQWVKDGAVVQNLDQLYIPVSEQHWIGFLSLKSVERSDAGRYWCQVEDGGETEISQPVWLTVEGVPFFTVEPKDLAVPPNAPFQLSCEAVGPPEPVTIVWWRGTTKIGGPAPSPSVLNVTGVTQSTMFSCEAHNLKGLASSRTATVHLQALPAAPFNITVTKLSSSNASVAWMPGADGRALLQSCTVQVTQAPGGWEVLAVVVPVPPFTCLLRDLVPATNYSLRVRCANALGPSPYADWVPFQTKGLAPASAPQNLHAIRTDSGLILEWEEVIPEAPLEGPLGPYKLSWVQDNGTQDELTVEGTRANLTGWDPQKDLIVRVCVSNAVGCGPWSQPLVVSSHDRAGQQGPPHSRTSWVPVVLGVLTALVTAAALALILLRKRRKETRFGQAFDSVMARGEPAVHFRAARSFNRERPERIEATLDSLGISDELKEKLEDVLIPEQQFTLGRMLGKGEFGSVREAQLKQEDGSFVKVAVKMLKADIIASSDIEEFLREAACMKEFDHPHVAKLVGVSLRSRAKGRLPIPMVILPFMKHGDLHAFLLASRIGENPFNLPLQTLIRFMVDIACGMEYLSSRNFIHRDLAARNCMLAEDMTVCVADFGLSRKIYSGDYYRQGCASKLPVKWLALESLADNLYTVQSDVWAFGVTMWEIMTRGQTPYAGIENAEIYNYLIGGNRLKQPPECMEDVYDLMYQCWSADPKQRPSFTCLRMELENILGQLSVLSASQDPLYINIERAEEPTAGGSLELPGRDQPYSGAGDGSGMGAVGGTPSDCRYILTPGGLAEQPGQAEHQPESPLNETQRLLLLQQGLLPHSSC
T5 sequence (P53667 whole entry): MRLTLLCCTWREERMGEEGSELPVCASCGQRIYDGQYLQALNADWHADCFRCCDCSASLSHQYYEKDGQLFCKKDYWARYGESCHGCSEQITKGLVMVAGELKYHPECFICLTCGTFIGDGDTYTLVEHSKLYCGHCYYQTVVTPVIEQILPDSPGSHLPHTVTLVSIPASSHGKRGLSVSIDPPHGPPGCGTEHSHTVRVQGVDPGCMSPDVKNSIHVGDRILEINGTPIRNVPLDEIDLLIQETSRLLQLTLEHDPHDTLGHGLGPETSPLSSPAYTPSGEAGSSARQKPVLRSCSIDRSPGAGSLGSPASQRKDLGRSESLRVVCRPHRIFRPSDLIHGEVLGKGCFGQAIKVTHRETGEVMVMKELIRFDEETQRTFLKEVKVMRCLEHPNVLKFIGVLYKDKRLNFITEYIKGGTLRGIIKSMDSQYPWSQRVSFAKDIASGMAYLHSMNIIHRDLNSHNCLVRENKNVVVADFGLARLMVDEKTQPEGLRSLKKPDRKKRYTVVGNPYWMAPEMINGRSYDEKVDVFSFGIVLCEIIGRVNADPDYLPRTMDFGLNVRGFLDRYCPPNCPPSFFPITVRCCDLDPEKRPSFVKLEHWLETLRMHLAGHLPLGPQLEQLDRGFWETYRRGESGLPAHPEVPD

In the case of `O=C1CCC(N2C(=O)c3cccc(OCCOCCOCCOCCNC(=O)[C@]4(Cc5cccc(Nc6nccs6)n5)CC[C@@H](Oc5cccc(Cl)c5F)CC4)c3C2=O)C(=O)N1` (stereo partly shown) [SK2188, reference compound], the “AURKA degradation, ABCB1 knockdown compared to wild-type (in words)” value on AURKA [1] is reported as “stronger AURKA degradation”.
As to `Cc1cc(Nc2ccc(F)c(CC3(C(=O)N4CCC(F)(CN5CCN(c6ccc(N7CCC(=O)NC7=O)cn6)CC5)CC4)CCN(Cc4cccc(Cl)c4F)CC3)n2)n[nH]1` [SK5527], the “CRBN neosubstrates (GSPT1, CSNK1A1, ZFP91, SALL4, ZNF654, ZNF787, E4F1, PATZ1) (in words)” value with IMR-32 proteome (IMR-32) is on record as “not significantly downregulated”. Also, in the experiment with IMR-32 proteome (IMR-32, 3h of treatment), the “degradation selectivity profile (in words)” value is “AURKA as the only significantly downregulated protein”. The remaining binding at 0.1 µM came to 77% at ZAK (100 nM); 80% on TYRO3 (100 nM); 89% on PCTK1 (100 nM); 88% on LIMK1 (100 nM); 0.8% at AURKA [2] (100 nM). The remaining binding at 1 µM was determined as 85% on ZAK (1000 nM); 89% on TYRO3 (1000 nM); 88% at PCTK1 (1000 nM); 96% at LIMK1 (1000 nM); 0% on AURKA [2] (1000 nM). Further, in the experiment with JRKL (IMR-32, 3h), the “Significant (3h SK5527vs3h DMSO) FDR0 05” value is on record as “+”. Further, in the experiment with JRKL (IMR-32, 3h), the “logFC (3h SK5527vs3h DMSO)” value came out at 5.38. Further, the “Significant (24h SK5527vs24h DMSO) FDR0 05” value with JRKL (IMR-32, 24h) is “+”. Further, the “logFC (24h SK5527vs24h DMSO)” value with JRKL (IMR-32, 24h) is listed as 3.68. Besides, the “logFC JRKL” value in the experiment with JRKL (SK5527 vs DMSO (3h)) is 5.38; in the experiment on JRKL (SK5527 vs DMSO (24h)), 3.68.
